Series [1] addresses T1, 382 unique human kinases (Homo sapiens, UniProt P42345).
T1 construct: purchased Reaction Biology (HotSpot contract assay)
The series is described as follows: biochemical. It is filed as biochemical. The conditions noted are these: mTOR/FRAP1; compound at 10 uM; duplicate values; read-out: % Enzyme Activity (relative to DMSO controls).

For series [2] the following is noted: human, in vivo; cited from earlier work.
Series [3] has as its target DDR1 (Homo sapiens, UniProt Q08345). As to the kind of experiment: NanoBRET intracellular target engagement. Background: Bioluminescence resonance energy transfer reports proximity on the nanometre scale.
Series [4] concerns the target ABL1 (Homo sapiens, UniProt P00519). The series is described as follows: NanoBRET intracellular target engagement.
Series [5] relates to HSP90B1. Set-up: method as in ChEMBL23 (accessed: 23/08/2018). The conditions noted are these: average of reported values; ref ChEMBL23 (accessed: 23/08/2018); cited from earlier work.
The target in series [6] is T2, 382 unique human kinases (Homo sapiens, UniProt P15056, L597V).
T2 construct: purchased Reaction Biology (HotSpot contract assay)
T2 sequence (P15056 whole entry L597V): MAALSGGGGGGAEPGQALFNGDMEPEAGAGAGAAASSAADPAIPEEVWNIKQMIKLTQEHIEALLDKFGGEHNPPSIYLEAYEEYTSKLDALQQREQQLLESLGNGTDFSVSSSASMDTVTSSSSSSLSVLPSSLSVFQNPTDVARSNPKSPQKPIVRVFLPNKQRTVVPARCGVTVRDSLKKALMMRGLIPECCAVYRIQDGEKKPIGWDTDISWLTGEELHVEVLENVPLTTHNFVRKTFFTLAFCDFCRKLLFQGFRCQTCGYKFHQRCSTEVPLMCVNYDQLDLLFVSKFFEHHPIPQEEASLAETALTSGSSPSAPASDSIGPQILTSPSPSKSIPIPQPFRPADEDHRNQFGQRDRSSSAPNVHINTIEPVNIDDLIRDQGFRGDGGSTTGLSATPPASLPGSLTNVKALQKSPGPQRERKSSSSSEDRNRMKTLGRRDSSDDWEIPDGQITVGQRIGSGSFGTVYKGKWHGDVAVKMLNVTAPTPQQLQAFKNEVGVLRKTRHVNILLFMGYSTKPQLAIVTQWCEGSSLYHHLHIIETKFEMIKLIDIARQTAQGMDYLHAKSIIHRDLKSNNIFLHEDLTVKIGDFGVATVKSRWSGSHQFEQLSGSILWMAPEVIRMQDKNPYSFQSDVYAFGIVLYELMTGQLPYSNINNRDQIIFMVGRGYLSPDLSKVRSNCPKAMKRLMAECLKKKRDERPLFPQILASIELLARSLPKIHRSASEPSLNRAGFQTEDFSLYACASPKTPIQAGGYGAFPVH
As to the kind of experiment: biochemical. It is filed as biochemical. The conditions noted are these: BRAF (L597V), compound at 10 uM, duplicate values.

Series [7] addresses T3, 382 unique human kinases (Homo sapiens, UniProt P57078).
T3 construct: purchased Reaction Biology (HotSpot contract assay)
As to the kind of experiment: biochemical. The class given is biochemical. To be noted: kinase RIPK4, compound 10 uM.

For series [8], the target named is T4, 382 unique human kinases (Homo sapiens, UniProt P00533, C797S/L858R/T790M).
T4 construct: purchased Reaction Biology (HotSpot contract assay)
The series is described as follows: biochemical. The conditions noted are these: EGFR (T790M/C797S/L858R), compound at 10 uM, duplicate values. The class given is biochemical.

In series [9] the target is T5, 382 unique human kinases (Homo sapiens, UniProt P08069).
T5 construct: purchased Reaction Biology (HotSpot contract assay)
T5 sequence (P08069 31-1367): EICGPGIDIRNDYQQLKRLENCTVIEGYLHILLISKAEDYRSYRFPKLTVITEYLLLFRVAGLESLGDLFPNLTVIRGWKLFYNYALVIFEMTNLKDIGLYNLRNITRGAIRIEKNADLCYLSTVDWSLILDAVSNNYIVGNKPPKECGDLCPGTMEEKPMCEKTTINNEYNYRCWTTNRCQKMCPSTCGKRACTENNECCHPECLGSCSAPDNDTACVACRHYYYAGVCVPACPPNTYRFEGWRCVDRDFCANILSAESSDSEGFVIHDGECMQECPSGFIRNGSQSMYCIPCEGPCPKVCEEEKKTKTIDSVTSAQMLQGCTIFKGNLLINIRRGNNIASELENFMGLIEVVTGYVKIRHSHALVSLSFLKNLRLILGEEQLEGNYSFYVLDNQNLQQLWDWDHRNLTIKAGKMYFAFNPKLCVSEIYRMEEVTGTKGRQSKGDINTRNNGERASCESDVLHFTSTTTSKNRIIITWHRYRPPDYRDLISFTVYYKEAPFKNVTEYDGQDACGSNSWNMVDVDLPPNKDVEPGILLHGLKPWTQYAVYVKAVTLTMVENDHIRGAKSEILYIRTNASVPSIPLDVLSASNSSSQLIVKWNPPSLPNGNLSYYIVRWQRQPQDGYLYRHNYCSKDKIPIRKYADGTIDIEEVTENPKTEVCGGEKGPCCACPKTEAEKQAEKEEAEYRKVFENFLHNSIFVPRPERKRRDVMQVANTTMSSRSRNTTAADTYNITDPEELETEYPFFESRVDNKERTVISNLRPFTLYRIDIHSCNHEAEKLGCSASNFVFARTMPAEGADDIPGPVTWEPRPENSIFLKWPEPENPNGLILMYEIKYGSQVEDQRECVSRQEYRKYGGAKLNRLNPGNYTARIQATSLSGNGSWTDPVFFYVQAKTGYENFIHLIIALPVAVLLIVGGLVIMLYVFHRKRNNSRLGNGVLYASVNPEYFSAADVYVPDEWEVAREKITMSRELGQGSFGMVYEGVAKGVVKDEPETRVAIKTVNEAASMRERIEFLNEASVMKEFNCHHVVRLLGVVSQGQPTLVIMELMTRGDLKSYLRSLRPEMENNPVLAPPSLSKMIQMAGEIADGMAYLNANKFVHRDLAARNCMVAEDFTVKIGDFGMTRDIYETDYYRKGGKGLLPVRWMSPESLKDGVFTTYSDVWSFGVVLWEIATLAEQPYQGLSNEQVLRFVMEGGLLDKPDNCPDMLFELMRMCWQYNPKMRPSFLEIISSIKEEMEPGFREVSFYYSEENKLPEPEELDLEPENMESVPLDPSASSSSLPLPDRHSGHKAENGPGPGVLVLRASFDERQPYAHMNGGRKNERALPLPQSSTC
The series is described as follows: biochemical. The conditions noted are these: IGF1R, compound at 10 uM, duplicate values. The class given is biochemical.

In series [10] the target is T6, 382 unique human kinases (Homo sapiens, UniProt P07947, T348I).
T6 construct: purchased Reaction Biology (HotSpot contract assay)
T6 sequence (P07947 whole entry T348I): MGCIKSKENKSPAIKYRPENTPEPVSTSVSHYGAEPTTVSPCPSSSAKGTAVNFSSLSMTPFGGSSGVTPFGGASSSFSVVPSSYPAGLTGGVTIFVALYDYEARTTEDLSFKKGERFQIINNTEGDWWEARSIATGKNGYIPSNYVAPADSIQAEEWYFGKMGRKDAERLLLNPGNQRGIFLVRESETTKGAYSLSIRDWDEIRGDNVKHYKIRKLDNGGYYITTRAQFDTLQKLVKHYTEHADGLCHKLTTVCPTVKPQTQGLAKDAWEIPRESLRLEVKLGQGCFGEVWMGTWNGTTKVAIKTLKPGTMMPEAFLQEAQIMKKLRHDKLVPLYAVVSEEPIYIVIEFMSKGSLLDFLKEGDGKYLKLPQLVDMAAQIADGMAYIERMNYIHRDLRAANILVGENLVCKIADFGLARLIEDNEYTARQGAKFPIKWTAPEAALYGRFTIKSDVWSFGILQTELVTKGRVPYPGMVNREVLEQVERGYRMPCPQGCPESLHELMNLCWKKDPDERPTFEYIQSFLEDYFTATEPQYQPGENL
The series is described as follows: biochemical. It is filed as biochemical. To be noted: YES1 (T348I), compound at 10 uM, duplicate values.

Series [11] addresses T7, 382 unique human kinases (Homo sapiens, UniProt P04626, D769H).
T7 construct: purchased Reaction Biology (HotSpot contract assay)
As to the kind of experiment: biochemical. The conditions noted are these: ERBB2 (D769H), 10 uM. The class given is biochemical.

The target of series [12] is T8, 382 unique human kinases (Homo sapiens, UniProt P00519, V299L).
T8 construct: purchased Reaction Biology (HotSpot contract assay)
As to the kind of experiment: biochemical. To be noted: ABL1 (V299L), [ATP] 5 µM, compound 10 uM. The class given is biochemical.

Series [13] deals with T9, 382 unique human kinases (Homo sapiens, UniProt P15056, V600D).
T9 construct: purchased Reaction Biology (HotSpot contract assay)
T9 sequence (P15056 whole entry V600D): as the sequence (P15056 whole entry L597V) above, with V597L, V600D counted along it
As to the kind of experiment: biochemical. It is filed as biochemical. The conditions noted are these: BRAF (V600D), 10 uM.

In series [14] the target is T10, 382 unique human kinases (Homo sapiens, UniProt P15056, V600K).
T10 construct: purchased Reaction Biology (HotSpot contract assay)
T10 sequence (P15056 whole entry V600K): as the sequence (P15056 whole entry L597V) above, with V597L, V600K counted along it
The series is described as follows: biochemical. The class given is biochemical. To be noted: BRAF (V600K), 10 uM.

Series [15] has as its target T11, 382 unique human kinases (Homo sapiens, UniProt P00519, F317L).
T11 construct: purchased Reaction Biology (HotSpot contract assay)
The series is described as follows: biochemical. It is filed as biochemical. To be noted: ABL1 (F317L), [ATP] 5 µM, compound 10 uM.

For series [16], the target named is T12, 382 unique human kinases (Homo sapiens, UniProt P04626).
T12 construct: purchased Reaction Biology (HotSpot contract assay)
As to the kind of experiment: biochemical. The class given is biochemical. The conditions noted are these: ERBB2/HER2, 10 uM.

Series [17] has as its target T13, 382 unique human kinases (Homo sapiens, UniProt P04626, D769Y).
T13 construct: purchased Reaction Biology (HotSpot contract assay)
As to the kind of experiment: biochemical. The class given is biochemical. To be noted: ERBB2 (D769Y), 10 uM.

The target in series [18] is T14, 382 unique human kinases (Homo sapiens, UniProt P17948).
T14 construct: purchased Reaction Biology (HotSpot contract assay)
T14 sequence (P17948 27-1338): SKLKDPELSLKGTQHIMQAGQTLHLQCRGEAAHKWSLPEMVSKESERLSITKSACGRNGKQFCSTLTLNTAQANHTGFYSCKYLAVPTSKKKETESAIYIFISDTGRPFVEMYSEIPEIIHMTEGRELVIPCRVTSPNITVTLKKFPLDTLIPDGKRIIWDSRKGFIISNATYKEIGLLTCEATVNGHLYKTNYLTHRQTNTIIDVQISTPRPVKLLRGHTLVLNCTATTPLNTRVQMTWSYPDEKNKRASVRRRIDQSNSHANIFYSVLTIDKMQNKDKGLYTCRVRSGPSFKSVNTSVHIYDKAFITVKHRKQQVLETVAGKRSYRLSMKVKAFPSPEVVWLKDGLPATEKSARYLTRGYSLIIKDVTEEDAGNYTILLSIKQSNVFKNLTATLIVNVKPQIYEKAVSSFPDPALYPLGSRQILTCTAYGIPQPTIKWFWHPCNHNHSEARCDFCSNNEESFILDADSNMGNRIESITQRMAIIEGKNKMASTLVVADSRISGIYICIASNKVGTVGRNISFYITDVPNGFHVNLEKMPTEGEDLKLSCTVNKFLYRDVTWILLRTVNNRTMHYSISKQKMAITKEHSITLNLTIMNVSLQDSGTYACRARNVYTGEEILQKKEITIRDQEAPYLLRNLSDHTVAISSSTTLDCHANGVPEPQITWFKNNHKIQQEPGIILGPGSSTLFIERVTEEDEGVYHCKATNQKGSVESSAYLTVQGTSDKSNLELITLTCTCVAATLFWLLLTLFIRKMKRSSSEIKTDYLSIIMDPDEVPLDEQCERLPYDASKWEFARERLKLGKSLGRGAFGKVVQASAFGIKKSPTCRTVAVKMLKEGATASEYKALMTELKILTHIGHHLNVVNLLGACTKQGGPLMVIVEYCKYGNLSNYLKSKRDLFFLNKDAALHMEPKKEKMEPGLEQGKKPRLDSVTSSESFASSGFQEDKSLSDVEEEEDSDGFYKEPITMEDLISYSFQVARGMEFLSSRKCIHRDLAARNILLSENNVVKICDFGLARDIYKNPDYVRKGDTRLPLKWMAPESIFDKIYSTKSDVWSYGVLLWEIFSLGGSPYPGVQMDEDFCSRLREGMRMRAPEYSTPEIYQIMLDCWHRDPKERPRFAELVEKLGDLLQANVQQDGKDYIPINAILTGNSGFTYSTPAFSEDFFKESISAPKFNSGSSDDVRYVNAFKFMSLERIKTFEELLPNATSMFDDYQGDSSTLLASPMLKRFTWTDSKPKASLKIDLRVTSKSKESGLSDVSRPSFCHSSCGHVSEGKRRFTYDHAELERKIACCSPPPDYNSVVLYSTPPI
The series is described as follows: biochemical. The class given is biochemical. The conditions noted are these: FLT1/VEGFR1, [ATP] 2.5 µM, compound 10 uM.

Series [19] has as its target T15, 382 unique human kinases (Homo sapiens, UniProt P19784).
T15 construct: purchased Reaction Biology (HotSpot contract assay)
As to the kind of experiment: biochemical. The class given is biochemical. To be noted: CK2a2, 10 uM.

Series [20] deals with T16, 382 unique human kinases (Homo sapiens, UniProt Q9BWU1).
T16 construct: purchased Reaction Biology (HotSpot contract assay)
T16 sequence (Q9BWU1 whole entry): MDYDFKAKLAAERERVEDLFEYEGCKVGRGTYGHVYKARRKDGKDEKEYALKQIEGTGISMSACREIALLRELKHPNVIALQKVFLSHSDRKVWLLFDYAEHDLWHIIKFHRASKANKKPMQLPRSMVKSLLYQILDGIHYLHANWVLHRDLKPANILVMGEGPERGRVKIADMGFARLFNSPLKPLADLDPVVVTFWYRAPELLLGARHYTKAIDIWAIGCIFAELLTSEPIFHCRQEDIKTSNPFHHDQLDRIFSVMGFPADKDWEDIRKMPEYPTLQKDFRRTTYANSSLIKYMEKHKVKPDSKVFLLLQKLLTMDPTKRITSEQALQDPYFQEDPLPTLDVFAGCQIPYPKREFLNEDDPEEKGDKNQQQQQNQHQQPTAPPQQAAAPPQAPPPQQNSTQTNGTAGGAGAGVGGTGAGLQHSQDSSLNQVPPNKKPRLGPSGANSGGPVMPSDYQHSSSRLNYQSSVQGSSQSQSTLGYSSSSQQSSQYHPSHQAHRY
The series is described as follows: biochemical. The class given is biochemical. The conditions noted are these: CDK19/cyclin C, 10 uM.

Series [21] has as its target T17, 382 unique human kinases (Homo sapiens, UniProt P15056, G469A).
T17 construct: purchased Reaction Biology (HotSpot contract assay)
The series is described as follows: biochemical. The conditions noted are these: BRAF (G469A), 10 uM. It is filed as biochemical.

[22] abbreviates: read-out: % Enzyme Activity (relative to DMSO controls).

T15 sequence (P19784 whole entry): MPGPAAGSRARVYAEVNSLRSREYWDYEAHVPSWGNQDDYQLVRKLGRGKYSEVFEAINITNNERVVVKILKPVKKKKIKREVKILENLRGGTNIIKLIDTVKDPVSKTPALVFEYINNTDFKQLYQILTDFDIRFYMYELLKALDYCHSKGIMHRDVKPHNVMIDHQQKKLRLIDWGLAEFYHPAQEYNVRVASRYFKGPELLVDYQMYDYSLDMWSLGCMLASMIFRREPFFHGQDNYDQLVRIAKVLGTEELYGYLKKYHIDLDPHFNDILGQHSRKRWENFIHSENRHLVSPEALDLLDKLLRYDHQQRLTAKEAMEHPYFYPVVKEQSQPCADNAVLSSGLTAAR
T17 sequence (P15056 whole entry G469A): as the sequence (P15056 whole entry L597V) above, with G469A, V597L counted along it

On to `CC(C)c1cc(-c2n[nH]c(=O)n2-c2ccc3c(ccn3C)c2)c(O)cc1O` [Ganetespib (STA9090)], for which the remaining activity at 10 µM in series [1] came out at 107%.
With `CC(C)c1cc(-c2n[nH]c(=O)n2-c2ccc3c(ccn3C)c2)c(O)cc1O` [Ganetespib], in [2], the “Cmax,total” value is 6 to 12 µM. Moreover, the results for the 50% effective concentration (EC50) in [3] and in series [4] were 75.5 µM and 82.9 µM, respectively. Also, the remaining activity at 100 µM in [3] (HEK293, read-out: %Normalized Bret Response, DDR1 NanoBRET, HEK293, Drug Conc. 0.0001 M) is 37.5%; in [4] (HEK293, read-out: %Normalized Bret Response, ABL1 NanoBRET, HEK293, Drug Conc. 0.0001 M), 41.3%. Besides, the “pActivity, HSP90B1” value in [5] was 8.
With `CCNC(=O)c1noc(-c2cc(C(C)C)c(O)cc2O)c1-c1ccc(CN2CCOCC2)cc1` [Luminespib (AUY-922)], the “% Enzyme Activity (relative to DMSO controls)” value is reported as 104.65% in series [6]; 85.29% in [7]; 100.18% in series [8]; 104.49% in series [9]; 101.23% in series [10]. In addition, the remaining activity at 10 µM was determined as 107% in series [6] (setting [22]); 87.2% in series [7] (setting [22]); 100% in series [8] (setting [22]); 106% in series [9] (setting [22]); 103% in [10] (setting [22]).
Take `CCNC(=O)c1noc(-c2cc(C(C)C)c(O)cc2O)c1-c1ccc(CN2CCOCC2)cc1` [Luminespib]: the “% Enzyme Activity (relative to DMSO controls)” value came to 99.65% in series [11]; 31.43% in series [12]; 98.35% in series [13]; 98.47% in series [14]; 5.92% in series [15]; 97.41% in [16]. The “% Enzyme Activity (relative to DMSO controls)” value in series [17] turned out to be 99.76%; in [18], 90.88%; in series [19], 108.66%; in [20], 95.24%; in series [21], 98.83%. Further, the remaining activity at 10 µM in series [11] (setting [22]) was 102%; in series [12] (setting [22]) it was 31.8%; in series [13] (setting [22]), 100%; in series [14] (setting [22]) it was 99.2%; in series [15] (setting [22]) it was 6.23%; in [16] (setting [22]), 98.2%. In addition, the remaining activity at 10 µM in series [17] (setting [22]) came to 100%; in [18] (setting [22]), 91.3%; in [19] (setting [22]), 111%; in [20] (setting [22]), 96.2%; in series [21] (setting [22]), 99.7%.

By EC50 is commonly meant the midpoint of the concentration-response curve. Low readings indicate a more potent agent, high ones a less potent agent.

Values taken from publication PMC8550792, “Evolution of kinase polypharmacology across HSP90 drug discovery” (Cell Chemical Biology, 2021).
